# Assays:
# [1] = tested on: r(CUG)9 (RNA, repeat) CUGCUGCUGCUGCUGCUGCUGCUGCUG; test: SPR single cycle kinetics; details: 25 °C
# [2] = tested on: r(CCG)9 (RNA, repeat) CCGCCGCCGCCGCCGCCGCCGCCGCCG; test: SPR single cycle kinetics; details: HBS-EP+ buffer, 25 °C
compound,measurement,setting,value
NCCCNc1nc(NC(=O)OCCCN)cc2c(-c3ccnc(N4CCNCC4)c3)cccc12,K d(app),"[1]; Na+ not printed for the running buffer (HBS-EP+; 500 mM NaCl only for immobilization), apparent, assumed 1:1 binding isotherm, 0.063-1.0 μM",1.2 µM
same,binding,[2]; highest concentration tested 1.0 μM,weak
NCCCNc1nc(NC(=O)OCCCNC(=O)CCNCCC(=O)NCCCOC(=O)Nc2cc3c(-c4ccnc(N5CCNCC5)c4)cccc3c(NCCCN)n2)cc2c(-c3ccnc(N4CCNCC4)c3)cccc12,binding,"[1]; HBS-EP+ buffer, 6.3-100 nM, significant response from 6.3 nM, not fitted",yes
same,binding,[2]; highest concentration tested 0.1 μM,weak
